Values quoted from earlier work, collected in patent US8226992B1, “Composition and method of preventing and treating redox diseases” (priority 2009, dated 2012).

Key:
[1] = at high levels
[2] = biological target: T1, Farnesoid X Receptors (FXR) (Mus musculus, UniProt Q60641); conditions: mouse model
T1 sequence (Q60641 1-488): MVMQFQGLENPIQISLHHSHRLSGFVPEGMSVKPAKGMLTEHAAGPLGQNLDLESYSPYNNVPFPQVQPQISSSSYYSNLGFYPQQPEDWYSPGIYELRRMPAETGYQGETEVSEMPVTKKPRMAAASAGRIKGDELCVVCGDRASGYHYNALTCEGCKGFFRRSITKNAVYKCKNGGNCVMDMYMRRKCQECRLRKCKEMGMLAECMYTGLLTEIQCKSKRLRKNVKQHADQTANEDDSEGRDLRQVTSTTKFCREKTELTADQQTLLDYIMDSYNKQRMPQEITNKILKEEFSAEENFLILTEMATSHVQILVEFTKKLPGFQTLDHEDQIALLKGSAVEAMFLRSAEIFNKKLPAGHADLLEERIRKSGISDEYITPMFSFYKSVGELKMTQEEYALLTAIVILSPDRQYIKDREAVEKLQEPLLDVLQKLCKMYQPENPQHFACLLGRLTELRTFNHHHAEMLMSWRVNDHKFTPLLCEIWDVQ

## O=C(O)c1cccnc1 [Naicin]
[1]
  Lp(a) levels reduced: up to 15%

## C[C@@]12CCc3occc3[C@H]1CC[C@@]13C[C@@H](CC[C@H]12)[C@@](O)(CO)C3 [Cafestol]
[2]
  activity at Farnesoid X Receptors (FXR): agonist ligand
